Earlier results, collected in patent US20120107430A1, “PRE-PROCEDURE MEAL REGIMEN” (priority 2009, published 2012).

Experiments:
colon [1] = conditions: N=50 per arm; senna two doses 158 mg each, 8 hours apart; sodium phosphate 48 grams
colon [2] = conditions: either diet (light breakfast then clear liquids, or normal breakfast, low residue lunch, then clear liquids); 200 patients

O=P(O)(O)O [sodium phosphate]
patients reporting good tolerance (colon [1]): 28 patients
patients reporting poor tolerance (colon [1]): 12 patients
good to excellent preparation (colon [2]): 93-95%
